Measured values as given in ChEMBL document CHEMBL1146925 (Bioorg Med Chem Lett, 2006).

Legend:
D(3) dopamine receptor = D(3) dopamine receptor (Homo sapiens, UniProt P35462); assay: Binding affinity to cloned human dopamine D3 receptor
D(2) dopamine receptor = D(2) dopamine receptor (Homo sapiens, UniProt P14416); assay: Binding affinity to cloned human dopamine D2 receptor
[1] = Oral bioavailability in rat at 2 mg/kg, iv and 10 mg/kg, po; type: ADME, organism-based; settings: in vivo
Canis familiaris = organism: Canis familiaris; assay: Metabolic stability in dog liver microsomes; type: ADME, Canis lupus familiaris
[2] = Permeability across Caco-2 cell membrane at pH 7.2; type: ADME, cell-based; settings: human, Caco-2, pH 7.2; read-out: permeability
[3] = Brain to plasma ratio in rat at 2 mg/kg, iv and 10 mg/kg, po
Liver microsomes [4] = assay: Metabolic stability in human liver microsomes; type: ADME, Microsome
Liver microsomes [5] = assay: Metabolic stability in rat liver microsomes; type: ADME, Microsome

D(2) dopamine receptor, sequence (P14416 whole entry): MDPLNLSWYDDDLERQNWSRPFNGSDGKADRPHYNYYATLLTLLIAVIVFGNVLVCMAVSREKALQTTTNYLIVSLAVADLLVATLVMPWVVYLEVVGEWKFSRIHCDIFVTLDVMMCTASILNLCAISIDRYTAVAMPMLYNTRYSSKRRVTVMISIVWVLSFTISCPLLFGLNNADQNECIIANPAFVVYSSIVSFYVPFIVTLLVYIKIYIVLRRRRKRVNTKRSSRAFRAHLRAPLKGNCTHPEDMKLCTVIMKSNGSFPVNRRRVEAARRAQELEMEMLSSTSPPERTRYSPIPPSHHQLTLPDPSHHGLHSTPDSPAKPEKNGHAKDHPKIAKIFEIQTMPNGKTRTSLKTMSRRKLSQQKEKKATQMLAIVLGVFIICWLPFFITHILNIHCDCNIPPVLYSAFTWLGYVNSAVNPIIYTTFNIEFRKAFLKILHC
D(3) dopamine receptor, sequence (P35462 whole entry): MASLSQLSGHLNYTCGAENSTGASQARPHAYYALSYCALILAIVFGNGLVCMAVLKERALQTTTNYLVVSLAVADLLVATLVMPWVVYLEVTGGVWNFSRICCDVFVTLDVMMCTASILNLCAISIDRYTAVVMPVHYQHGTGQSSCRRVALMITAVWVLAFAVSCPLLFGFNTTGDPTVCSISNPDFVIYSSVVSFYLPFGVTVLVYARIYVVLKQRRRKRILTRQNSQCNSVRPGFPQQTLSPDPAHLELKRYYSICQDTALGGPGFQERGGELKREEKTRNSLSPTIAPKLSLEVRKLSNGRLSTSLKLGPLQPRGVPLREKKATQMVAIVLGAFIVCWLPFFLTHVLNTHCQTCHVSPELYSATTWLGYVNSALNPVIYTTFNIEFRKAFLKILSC

Question: Which Ki (D(3) dopamine receptor) does the source give for `CC(C)(C)CNC(=O)NCCCCN1CCN(c2cc(C(F)(F)F)nc(C(C)(C)C)n2)CC1` here?
Answer: 5.5 nM

Question: What about the Ki (D(2) dopamine receptor) of the same molecule?
Answer: 91.3 nM

Question: With `CC(C)(C)c1nc(N2CCN(CCCCCC(=O)NCc3ccccc3)CC2)cc(C(F)(F)F)n1` as the molecule, how does the Ki (D(3) dopamine receptor) read?
Answer: 6.2 nM

Question: What about the Ki (D(2) dopamine receptor) of the same molecule?
Answer: 174 nM

Question: Which results are given for `CC(C)(C)c1nc(N2CCN(CCCCn3cccc(C(F)(F)F)c3=O)CC2)cc(C(F)(F)F)n1`?
Answer: Ki (D(3) dopamine receptor): 9.3 nM; Ki (D(2) dopamine receptor): 409 nM

Question: Which Ki (D(3) dopamine receptor) does the source give for `CCN(CC)C(=O)NCCCCN1CCN(c2cc(C(F)(F)F)nc(C(C)(C)C)n2)CC1` here?
Answer: 0.9 nM

Question: What about the Ki (D(2) dopamine receptor) of the same molecule?
Answer: 17.3 nM

Question: For `CC(C)(C)c1nc(N2CCN(CCCCn3ccc(C(F)(F)F)cc3=O)CC2)cc(C(F)(F)F)n1`, which Ki (D(3) dopamine receptor) is on record?
Answer: 11.4 nM

Question: What about the Ki (D(2) dopamine receptor) of the same molecule?
Answer: 231 nM

Question: For `CC(C)(C)c1nc(N2CCN(CCCCn3ccc(C(F)(F)F)nc3=O)CC2)cc(C(F)(F)F)n1`, which Ki (D(2) dopamine receptor) is on record?
Answer: 936 nM

Question: For `CC(C)(C)c1nc(N2CCN(CCCCNC(=O)CCc3ccccc3)CC2)cc(C(F)(F)F)n1`, which Ki (D(3) dopamine receptor) is on record?
Answer: 1.6 nM

Question: What about the bioavailability [1] of the same molecule?
Answer: < 10%

Question: And the Ki (D(2) dopamine receptor)?
Answer: 244 nM

Question: Which Ki (D(3) dopamine receptor) does the source give for `CCN(Cc1ccccc1)C(=O)NCCCCN1CCN(c2cc(C(F)(F)F)nc(C(C)(C)C)n2)CC1` here?
Answer: 8.3 nM

Question: And the Ki (D(2) dopamine receptor)?
Answer: 212 nM

Question: Which Ki (D(2) dopamine receptor) does the source give for `COc1cccn(CCCCN2CCN(c3cc(C(F)(F)F)nc(C(C)(C)C)n3)CC2)c1=O` here?
Answer: 168 nM

Question: Which results are given for `CC(C)(C)c1nc(N2CCN(CCCCNC(=O)NCC3CCCCC3)CC2)cc(C(F)(F)F)n1`?
Answer: Ki (D(3) dopamine receptor): 6.7 nM; Ki (D(2) dopamine receptor): 159 nM

Question: For `CC(C)(C)c1nc(N2CCN(CCCCn3ccc(O)cc3=O)CC2)cc(C(F)(F)F)n1`, which Ki (D(3) dopamine receptor) is on record?
Answer: 1.1 nM

Question: And the Ki (D(2) dopamine receptor)?
Answer: 25.5 nM

Question: Which Ki (D(3) dopamine receptor) does the source give for `CC(C)(C)c1nc(N2CCN(CCCCNC(=O)Nc3ccccc3)CC2)cc(C(F)(F)F)n1` here?
Answer: 3.2 nM

Question: What about the Ki (D(2) dopamine receptor) of the same molecule?
Answer: 59.1 nM

Question: Which results are given for `Cc1ccn(CCCCN2CCN(c3cc(C(F)(F)F)nc(C(C)(C)C)n3)CC2)c(=O)c1`?
Answer: Stability (Canis familiaris): 59%; Papp [2]: 5 ×10⁻⁶ cm/s; Kp [3]: 3.7; Stability (Liver microsomes [4]): > 97%; Stability (Liver microsomes [5]): 74%; bioavailability [1]: 37%; Ki (D(2) dopamine receptor): 62.6 nM

Question: Which Ki (D(3) dopamine receptor) does the source give for `CC(C)(C)c1nc(N2CCN(CCCCn3cc(Cl)ccc3=O)CC2)cc(C(F)(F)F)n1` here?
Answer: 32.2 nM

Question: What about the Ki (D(2) dopamine receptor) of the same molecule?
Answer: 128 nM

Question: Which Ki (D(3) dopamine receptor) does the source give for `CC(C)(C)c1nc(N2CCN(CCCCn3cc(C(F)(F)F)ccc3=O)CC2)cc(C(F)(F)F)n1` here?
Answer: 35.7 nM

Question: And the Ki (D(2) dopamine receptor)?
Answer: 399 nM

Question: For `CC(C)(C)c1nc(N2CCN(CCCCn3ccc(-c4ccccc4)cc3=O)CC2)cc(C(F)(F)F)n1`, which Ki (D(2) dopamine receptor) is on record?
Answer: 527 nM

Question: What does the source list for `CC(C)(C)c1nc(N2CCN(CCCCNC(=O)NCc3ccccc3)CC2)cc(C(F)(F)F)n1`?
Answer: Ki (D(3) dopamine receptor): 2.7 nM; Ki (D(2) dopamine receptor): 137 nM

Question: With `Cc1cccn(CCCCN2CCN(c3cc(C(F)(F)F)nc(C(C)(C)C)n3)CC2)c1=O` as the molecule, how does the Ki (D(2) dopamine receptor) read?
Answer: 171 nM

Question: Which Ki (D(3) dopamine receptor) does the source give for `CC(C)(C)c1nc(N2CCN(CCCCNC(=O)NCCc3ccccc3)CC2)cc(C(F)(F)F)n1` here?
Answer: 7.2 nM

Question: And the Ki (D(2) dopamine receptor)?
Answer: 234 nM

Question: Which Ki (D(3) dopamine receptor) does the source give for `CC(C)(C)NC(=O)NCCCCN1CCN(c2cc(C(F)(F)F)nc(C(C)(C)C)n2)CC1` here?
Answer: 4 nM

Question: And the Ki (D(2) dopamine receptor)?
Answer: 65.8 nM

Question: Which Ki (D(3) dopamine receptor) does the source give for `Cc1cccc(=O)n1CCCCN1CCN(c2cc(C(F)(F)F)nc(C(C)(C)C)n2)CC1` here?
Answer: 12.1 nM

Question: And the Ki (D(2) dopamine receptor)?
Answer: 195 nM
